Source: US7091351B2, “Vanadium compounds for treating cancer” (Parker Hughes Institute, priority 1998, dated 2006)

Legend:
Type in all cases: cell-based, human
[1] = test system: Tera-2 testicular cancer cells; assay: Flow cytometric TUNEL apoptosis assay, TERA-2 cells; conditions: 24 h, TUNEL-positive nuclei
Protocol: (§1) A flow cytometric two-color terminal […] transferase (TdT)-mediated digoxigenin-uridine triphosphate (dUTP) nick-end labeling assay (TUNEL) was employed to detect apoptotic nuclei. Gavrieli, Y., Sherman, Y., Ben-Sasson, S. A. Identification of programmed cell death in situ via specific labeling of nuclear DNA fragmentation. J. Cell Biol., 119: 493–501, 1992. Exponentially growing cells (10^6/ml) were incubated in DMSO alone (0.1%) or treated with 100 μM each of the 16 vanadocenes (VDB, VDC, VMDC, VDI, VDA, VDCN, VDOCN, VDSCN, VDSeCN, VDT, VDCO, VDFe, VD(acac), VDH, VD(dpy), and VD(dtc) in 0.1% DMSO for 24 h. Cells were washed in PBS, fixed in 4% paraformaldehyde in PBS for 15 min on ice. Following two washings in PBS, they were permeabilized with 0.1% Triton X-100 in 0.1% sodium citrate for 2 min on ice, and washed twice in PBS. Labeling of exposed 3′-hydroxyl (3′-OH) ends of fragmented nuclear DNA was performed using TdT and fluorescein isothiocyanate (FITC)-conjugated dUTP according to the manufacturer's recommendations (Boehringer Mannheim, Indianapolis, Ind.). Cells were counterstained with 5 μg/ml PI. Control samples included: (i) untreated cells; (ii) cells incubated with the reaction mixture without the TdT enzyme. Cells were analyzed with a FACS Calibur flow cytometer (Becton Dickinson, Mountain View, Calif.). Relative DNA content (PI) was detected with band-pass filter 585/42, and dUTP incorporation (FITC) was detected with band-pass filter 530/30. Fluorescence was compensated for in the acquisition software using single-label control samples. Data were acquired in listmode, gated to 10,000 events per sample, and analyzed with the use of CELLQuest software program (Becton Dickinson). […] Vanadocene-induced apoptosis is shown by an increase in the number of cells staining with FITC-dUTP. The M1 and M2 gates were used to demarcate non-apoptotic and apoptotic PI-counterstained cell populations, respectively. TUNEL assays were performed using two testicular cell lines Tera-2 and Ntera-2 following exposure to each of the 16 vanadocenes. In other experiments, MC540 binding (as an early marker of apoptosis) and PI permeability (as a marker of advanced stage apoptosis) were simultaneously measured in human cancer cells 24 hours after exposure to vanadocenes, as previously described. Uckun, F. M., Narla, R. K., Jun, X., Zeren, T., Venkatachalam, T., Waddick, K. G., Rostostev, A., Myers, D. E. Cytotoxic activity of EGF-genstein against breast cancer cells. Clin. Cancer Res. 4:901–912, 1998. Vassilev, A., Ozer, Z., Navara, C., Mahajan, S., and Uckun, F. M. Bruton's tyrosine kinase as an inhibitor of the Fas/CD95 death-inducing signaling complex. J. Biol. Chem. 274:1646–56, 1999. Whole cells were analyzed using a FACStar Plus flow cytometer (Becton Dickinson, San Jose, Calif.). All analyses were done using 488 nm excitation from an argon laser. MC540 and PI emissions were split with a 600 nm short pass dichroic mirror and a 575 nm band pass filter was placed in front of one photomultiplier tube to measure MC540 emission and a 635 nm band pass filter was used for PI emission.

[2] = test system: Tera-2 testicular cancer cells; assay: MTT cytotoxicity assay of vanadocenes, TERA-2 cells; conditions: 24 h, 1.9-250 μM
Protocol: (§2) Human testicular cancer cell lines, Tera-2 (embryonal carcinoma) and Ntera-2 (pluripotent embryonal carcinoma) were obtained from the American Type Culture Collection (ATCC) (Rockeville, Md.) and propagated in T-25, T-75, or T-150 cm^2 tissue culture flasks (Corning Corp., Corning, N.Y.) in McCoy's 5A medium and Dulbecco's modified Eagle's medium respectively. Both media were supplemented with 10% fetal calf serum (FCS), 4 mM glutamine, 100 U/ml penicillin G, and […] streptomycin sulfate. All tissue culture reagents were obtained from Life Technologies Inc. (GIBCO-BRL), Gaithersburg, Md. Cell lines were cultivated for a minimum of two passages after thawing prior to experimentation. Other cell lines that were used in this study were the human B-lineage acute lymphoblastic leukemia (ALL) cell line NALM-6. Uckun, F. M., Evans, W. E., Forsyth, C. J., Waddick, K. G., Tuel-Ahlgren, L., Chelstrom, L. M., Burkhardt, A., Bolen, J., Myers, D. E. Biotherapy of B-cell precursor leukemia by targeting genistein to CD19-associated tyrosine kinase. Science (Washington DC) 267:886–91, 1995; T-lineage ALL cell line MOLT-3, Waurzyniak, B., Shneider, E. A., Tumer, N., Yanishevski, Y., Gunther, R., Chelstrom, L., Wendorf, H., Myers, D. E., Irvin, J. D., Messinger, Y., Ek, O., Zeren, T., Chandan-Langlie, M., Evans, W. E., Uckun, F. M. In vivo toxicity, pharmacokinetics, and antileukemic activity of TXU (anti-CD7)-pokeweed antiviral protein immunotoxin. Clinical Cancer Research 3:881–890, 1997; AML cell line HL-60, Perentesis, J. P., Waddick, K. G., Bendel, A. E., Shao, Y., Warman, B. E., Chandan-Langlie, M., and Uckun, F. M. Induction of apoptosis in multi-drug resistant andradiation-resistant acute myeloid leukemia cells by a recombinant fusion toxin directed against the granulocyte macrophage colony stimulating factor receptor. Clin. Cancer Res. 3:347–355, 1997; breast cancer cell lines MDA-MB-231 and BT-20, Uckun, F. M., Narla, R. K., Jun, X., Zeren, T., Venkatachalam, T., Waddick, K. G., Rostostev, A., Myers, D. E. Cytotoxic activity of EGF-genstein against breast cancer cells. Clin. Cancer Res. 4:901–912, 1998; glioblastoma cell lines U87 and U373, Narla, R. K., Liu, X., Myers, D. E., and Uckun, F. M. 4-(3′-Bromo-4′hydroxylphenyl)-amino-6,7-dimethoxyquinazoline (WHI-P154): A novel quinazoline derivative with potent cytotoxic activity against human glioblastoma cells. Clin. Cancer Res. 4:1405–1414, 1998.
(§3) MTT (3-[4,5-dimethyl thiazol-2-yl]-2,5-diphenyltetrazolium bromide)-based colorimetric assays were used for evaluation of the cytotoxicity of vanadocene compounds. Mosmann, T. Rapid colorimetric assay for cellular growth and survival: application to proliferation and cytotoxicity assays. J. Immunol. Methods, 65: 55–63, 1983. Briefly, cells were harvested with 0.125% (w/v) trypsin-0.02% EDTA (GIBCO-BRL) from exponential-phase maintenance cultures and centrifuged (300 g×5 min). After suspension and counting, cells were dispensed within triplicate 96-well tissue culture plates in 100 μl volumes. After 24 h incubation, the culture medium was discarded and replaced with 100 μl of fresh medium containing serial two-fold dilutions of drugs in medium to yield 1.9 μM to 250 μM. All compounds were reconstituted in DMSO to a concentration of 100 mM, and the stock solution was made fresh for each experiment. Control wells consisted of medium containing 0.25% of DMSO alone were used for solvent control. Culture plates were then incubated for 24 h before adding 10 μl of MTT solution (5 mg/ml in PBS) to each well. Wells containing only medium and MTT were used as controls for each plate. The tetrazolium/formazan reaction was allowed to proceed for 4 h at 37° C., and then 100 μl of the solubilization buffer (10% sodium dodecyl sulfate in 0.1% HCl) were added to all wells and mixed thoroughly to dissolve the dark blue formazan crystals. […]

[3] = test system: Ntera-2 testicular cancer cells; assay: Flow cytometric TUNEL apoptosis assay, NTERA-2 cells; conditions: 24 h, TUNEL-positive nuclei
Protocol: as §1

U373 glioblastoma cells = assay: MTT cytotoxicity assay of vanadocenes, U373 cells; conditions: 24 h
Protocol: as §2, §3

[4] = test system: Ntera-2 testicular cancer cells; assay: MTT cytotoxicity assay of vanadocenes, NTERA-2 cells; conditions: 24 h, 1.9-250 μM
Protocol: as §2, §3

| Compound | % Apoptosis at 100 μM TERA-2 [1] | IC50 [2] [µM] | % Apoptosis at 100 μM NTERA-2 [3] | IC50 (U373 glioblastoma cells) [µM] | IC50 [4] [µM] |
| --- | --- | --- | --- | --- | --- |
| VCp2(dtc) [VD(dtc)] | 83 (82, 84) % | 60 | 67 ± 13 (N = 3) % | 7 | 83 |
| VCp2(H) [VDH] | 84 ± 2 (N = 3) % | 118 | 20 ± 5 (N = 3) % | > 250 | 125 |
| O=S(=O)(O)C(F)(F)F.O=S(=O)(O)C(F)(F)F.[V+2].c1cc[cH-]c1.c1cc[cH-]c1 [VDT, VCp2(O3SCF3)2] | 71 (71, 71) % | 76 | 55 ± 26 (N = 4) % |  | 137 |
| VCp2(NCO)2 [VDOCN] | 85 (80, 90) % | 31 | 95 (94, 96) % |  | 63 |
| HfCp2Cl2 [HDC] |  | > 250 |  | > 250 | > 250 |
| VCp2(NCS)2.0.5H2O [VDSCN] | 64 (58, 69) % | 23 | 53 (46, 60) % | 19 | 17 |
| MoCp2Cl2 [MDC] |  | > 250 |  | > 250 | > 250 |
| VCp2(bpy)(O3SCF3)2 [VD(bpy)] |  | 37 | 78 (77, 78) % |  | 53 |
| [Cl-].[N-]=C=O.[V+2].c1cc[cH-]c1.c1cc[cH-]c1 [VDCO, VCp2(NCO)Cl] | 73 (67, 78) % | 50 | 98 (97, 99) % |  | 90 |
| ZrCp2Cl2 [ZDC] |  | > 250 |  | > 250 | > 250 |
| Cc1c(C)c(C)[c-](C)c1C.Cc1c(C)c(C)[c-](C)c1C.[Cl-].[Cl-].[V+2] [VPMDC, V(Me5Cp)2Cl2] | 35 (35, 36) % | 127 | 34 (33, 35) % | 172 | 44 |
| [O-]c1ccccc1[O-].[V+2].c1cc[cH-]c1.c1cc[cH-]c1 [VD(cat), Cp2V(cat)] |  | 79 | 12 (9, 15) % |  | 93 |
| VCp2(PH) [VDPH] | 88 ± 3 (N = 3) % | > 250 | 90 ± 3 (N = 4) % |  | 61 |
| V(Me5Cp)OCl [VPMOC] | 5 (5, 6) % | > 250 | 6 (6, 7) % |  | 77 |
| TiCp2Cl2 [TDC] |  | > 250 |  | > 250 | > 250 |
| V(MeCp)2Cl2.0.5 H2O [VMDC] | 45 (27, 61) % | 123 | 13 (13, 14) % | 61 | 86 |
| CC#N.[Cl-].[Cl-].[Cl-].[Cl-].[Cl-].[Fe+3].[V+4].c1cc[cH-]c1.c1cc[cH-]c1 [VDFe, VCp2Cl (CH3CN)(FeCl4)] | 85 (84, 87) % | 100 | 87 (81, 94) % |  | 113 |
| CC(=O)[CH-]C(C)=O.O=S(=O)([O-])C(F)(F)F.[V+4].c1cc[cH-]c1.c1cc[cH-]c1 [VD(acac), VCp2(acac)(O3SCF3)] | 72 ± 17% | 64 | 48 ± 13 (N = 3) % |  | 75 |
